# Columns and labels:
# [1] = system: Epidermal growth factor receptor (Homo sapiens), P00533 [UNDEFINED MUTATION]; experiment: Selectivity interaction (KinomeScan (DiscoverX)) EUB0000045b EGFR; settings: at 1 µM
# [2] = system: Tyrosine-protein kinase ABL1 (Homo sapiens), P00519 [T315I]; experiment: Selectivity interaction (KinomeScan (DiscoverX)) EUB0001049a ABL1; settings: at 1 µM
# [3] = biological target: T1, Testis-specific serine/threonine-protein kinase 2 (Homo sapiens) (UniProt Q96PF2); experiment: Selectivity interaction (Upstate Kinase Profiler service (Millipore)) EUB0000056c TSSK2; settings: at 1 µM
# T1 sequence (whole entry): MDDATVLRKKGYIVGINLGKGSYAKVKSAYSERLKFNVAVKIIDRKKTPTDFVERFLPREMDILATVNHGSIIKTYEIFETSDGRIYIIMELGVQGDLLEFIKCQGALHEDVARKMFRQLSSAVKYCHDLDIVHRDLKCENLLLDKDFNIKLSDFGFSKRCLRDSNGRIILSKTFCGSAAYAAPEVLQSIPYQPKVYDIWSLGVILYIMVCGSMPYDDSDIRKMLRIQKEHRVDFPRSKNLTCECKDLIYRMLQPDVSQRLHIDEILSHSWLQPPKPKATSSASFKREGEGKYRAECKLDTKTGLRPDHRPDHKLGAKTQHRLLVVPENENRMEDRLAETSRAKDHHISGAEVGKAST
# [4] = biological target: High affinity nerve growth factor receptor (Homo sapiens, UniProt P04629)
# [5] = system: Mast/stem cell growth factor receptor Kit (Homo sapiens), P10721 [A829P]; experiment: (§1) Selectivity interaction (ProQinase) EUB0000171b KIT
# Sequence of Mast/stem cell growth factor receptor Kit (Homo sapiens), P10721 [A829P] (P10721 whole entry A829P): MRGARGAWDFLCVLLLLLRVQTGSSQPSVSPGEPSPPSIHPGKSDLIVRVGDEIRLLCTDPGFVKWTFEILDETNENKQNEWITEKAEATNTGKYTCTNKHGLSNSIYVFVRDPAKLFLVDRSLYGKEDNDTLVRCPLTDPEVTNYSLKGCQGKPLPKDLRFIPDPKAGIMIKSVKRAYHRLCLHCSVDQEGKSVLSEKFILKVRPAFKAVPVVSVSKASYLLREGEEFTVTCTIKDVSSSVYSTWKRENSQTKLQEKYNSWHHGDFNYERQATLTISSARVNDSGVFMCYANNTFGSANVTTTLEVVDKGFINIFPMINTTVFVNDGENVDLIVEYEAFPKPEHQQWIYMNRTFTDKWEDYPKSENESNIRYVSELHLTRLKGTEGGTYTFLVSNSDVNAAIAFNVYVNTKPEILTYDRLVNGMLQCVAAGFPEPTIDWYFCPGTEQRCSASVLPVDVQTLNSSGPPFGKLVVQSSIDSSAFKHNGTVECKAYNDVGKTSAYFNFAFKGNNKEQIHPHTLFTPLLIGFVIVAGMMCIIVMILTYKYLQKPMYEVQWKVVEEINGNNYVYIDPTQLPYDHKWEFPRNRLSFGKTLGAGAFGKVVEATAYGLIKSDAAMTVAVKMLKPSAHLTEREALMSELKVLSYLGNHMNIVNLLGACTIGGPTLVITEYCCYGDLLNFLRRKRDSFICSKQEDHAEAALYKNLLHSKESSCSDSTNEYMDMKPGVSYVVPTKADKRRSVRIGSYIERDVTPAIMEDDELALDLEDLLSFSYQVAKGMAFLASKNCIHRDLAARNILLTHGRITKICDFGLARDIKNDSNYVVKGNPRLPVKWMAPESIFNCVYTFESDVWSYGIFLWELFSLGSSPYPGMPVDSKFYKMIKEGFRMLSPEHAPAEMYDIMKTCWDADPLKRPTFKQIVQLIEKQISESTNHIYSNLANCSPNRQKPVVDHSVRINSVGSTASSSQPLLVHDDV
# [6] = system: Mast/stem cell growth factor receptor Kit (Homo sapiens), P10721 [D816H]; experiment: as §1
# [7] = system: Mast/stem cell growth factor receptor Kit (Homo sapiens), P10721 [D816V]; experiment: as §1
# [8] = system: Mast/stem cell growth factor receptor Kit (Homo sapiens), P10721 [T670I]; experiment: as §1
# [9] = system: Mast/stem cell growth factor receptor Kit (Homo sapiens), P10721 [V559D,T670I]; experiment: as §1
# Sequence of Mast/stem cell growth factor receptor Kit (Homo sapiens), P10721 [V559D,T670I] (P10721 whole entry V559D/T670I): as the sequence (P10721 whole entry A829P) above, with V559D, T670I, P829A counted along it
# [10] = system: Mast/stem cell growth factor receptor Kit (Homo sapiens), P10721 [V559D,V654A]; experiment: as §1
# Sequence of Mast/stem cell growth factor receptor Kit (Homo sapiens), P10721 [V559D,V654A] (P10721 whole entry V559D/V654A): as the sequence (P10721 whole entry A829P) above, with V559D, V654A, P829A counted along it
# [11] = system: Mast/stem cell growth factor receptor Kit (Homo sapiens), P10721 [V559D]; experiment: as §1
# [12] = system: Mast/stem cell growth factor receptor Kit (Homo sapiens), P10721 [V560G]; experiment: as §1
# Sequence of Mast/stem cell growth factor receptor Kit (Homo sapiens), P10721 [V560G] (P10721 whole entry V560G): as the sequence (P10721 whole entry A829P) above, with V560G, P829A counted along it
# [13] = system: Mast/stem cell growth factor receptor Kit (Homo sapiens), P10721 [V654A]; experiment: as §1
# Sequence of Mast/stem cell growth factor receptor Kit (Homo sapiens), P10721 [V654A] (P10721 whole entry V654A): as the sequence (P10721 whole entry A829P) above, with V654A, P829A counted along it
# [14] = biological target: Mast/stem cell growth factor receptor Kit (Homo sapiens, UniProt P10721); experiment: as §1
# [15] = biological target: Cyclin-dependent kinase 5/CDK5 activator 1 (Homo sapiens) (UniProt Q00535+Q15078); experiment: Selectivity interaction (SelectScreen profiling (Invitrogen)) EUB0000607a CDK5; assay type: protein-complex assay; settings: at 2 µM
# [16] = biological target: T2, Interleukin-1 receptor-associated kinase 3 (Homo sapiens) (UniProt Q9Y616); experiment: Selectivity interaction (KinomeScan (DiscoverX)) EUB0000607a IRAK3; settings: at 10 µM
# T2 sequence (whole entry): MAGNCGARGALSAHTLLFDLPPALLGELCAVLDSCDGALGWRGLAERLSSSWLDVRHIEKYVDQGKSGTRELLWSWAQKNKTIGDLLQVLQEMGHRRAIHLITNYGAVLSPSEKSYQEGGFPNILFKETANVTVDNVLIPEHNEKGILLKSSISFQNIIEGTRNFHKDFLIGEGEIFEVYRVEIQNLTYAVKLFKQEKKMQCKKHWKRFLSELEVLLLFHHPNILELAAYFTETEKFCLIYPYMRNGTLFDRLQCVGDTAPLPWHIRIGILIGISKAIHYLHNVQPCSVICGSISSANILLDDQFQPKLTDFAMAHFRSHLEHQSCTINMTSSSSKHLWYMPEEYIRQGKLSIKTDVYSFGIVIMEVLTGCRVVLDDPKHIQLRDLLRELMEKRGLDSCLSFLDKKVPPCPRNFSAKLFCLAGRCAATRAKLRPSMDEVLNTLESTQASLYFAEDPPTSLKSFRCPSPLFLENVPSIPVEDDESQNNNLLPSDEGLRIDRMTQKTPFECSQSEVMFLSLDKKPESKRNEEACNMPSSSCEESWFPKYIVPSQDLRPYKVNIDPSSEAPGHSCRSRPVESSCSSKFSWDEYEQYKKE
# [17] = biological target: Serine/threonine-protein kinase PLK1 (Homo sapiens, UniProt P53350); experiment: Selectivity interaction (KinomeScan (DiscoverX)) EUB0000607a PLK1; settings: at 10 µM
# [18] = biological target: T3, Mixed lineage kinase domain-like protein (Homo sapiens) (UniProt Q8NB16); experiment: Selectivity interaction (ActivX KiNativ screen (kinase selectivity in THP-1 cell lysates)) EUB0000639a MLKL; assay type: subcellular; settings: lysate
# T3 sequence (whole entry): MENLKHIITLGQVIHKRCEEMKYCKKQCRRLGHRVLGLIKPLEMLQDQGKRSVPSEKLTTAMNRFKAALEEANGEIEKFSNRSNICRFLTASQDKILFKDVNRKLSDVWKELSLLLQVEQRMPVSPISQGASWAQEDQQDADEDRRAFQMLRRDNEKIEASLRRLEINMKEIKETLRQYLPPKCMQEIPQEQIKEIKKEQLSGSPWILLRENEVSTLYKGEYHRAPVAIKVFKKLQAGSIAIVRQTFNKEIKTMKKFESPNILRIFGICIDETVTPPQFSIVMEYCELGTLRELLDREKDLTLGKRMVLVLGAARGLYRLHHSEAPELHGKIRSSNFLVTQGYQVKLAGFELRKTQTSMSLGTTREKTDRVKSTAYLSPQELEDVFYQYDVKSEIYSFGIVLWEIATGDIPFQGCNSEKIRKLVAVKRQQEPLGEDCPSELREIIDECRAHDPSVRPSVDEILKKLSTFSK
# [19] = biological target: Death-associated protein kinase 3 (Homo sapiens) (UniProt O43293); experiment: Selectivity interaction (KinomeScan (DiscoverX)) EUB0000092b DAPK3; settings: at 10 µM
# [20] = biological target: Casein kinase II subunit alpha' (Homo sapiens) (UniProt P19784); experiment: Selectivity interaction (Ambit KINOMEscan and KiNATiv profiling in Jurkat cells) EUB0000090b CSNK2A2; assay type: cell-based; settings: at 1 µM
smiles,measurement,setting,value
C=CC(=O)Nc1cc(-n2c(=O)ccc3cnc4ccc(-c5ccc(NS(C)(=O)=O)cc5)cc4c32)ccc1C,% of control,[1],66%
COc1cc(Nc2nc(C)cc(-c3cnn4nc(OC)ccc34)n2)cc(C(F)(F)F)c1,% of control,[2],100%
Cc1ccc(-c2ccc3c(ccc4sc5c(c43)NC[C@@H](C)NC5=O)n2)cn1,% of inhibition,[3],4%
CCc1cccc(CC)c1NC(=O)c1nn(C)c2c1CCc1cnc(Nc3ccc(C(=O)NC4CCN(C)CC4)cc3OC(F)(F)F)nc1-2,IC50,[4],> 10 µM
C=CC(=O)Nc1cccc(C(=O)Nc2ccc(Nc3cc(-c4[nH]c(SC)nc4C)ccn3)cc2)c1,% of control,[5]; at 1 µM,68%
same,% of control,[5]; at 5 µM,75%
same,% of control,[6]; at 1 µM,91%
same,% of control,[6]; at 5 µM,66%
same,% of control,[7]; at 1 µM,87%
same,% of control,[7]; at 5 µM,55%
same,% of control,[8]; at 1 µM,107%
same,% of control,[8]; at 5 µM,98%
same,% of control,[9]; at 1 µM,96%
same,% of control,[9]; at 5 µM,77%
same,% of control,[10]; at 1 µM,94%
same,% of control,[10]; at 5 µM,85%
same,% of control,[11]; at 1 µM,102%
same,% of control,[11]; at 5 µM,94%
same,% of control,[12]; at 1 µM,95%
same,% of control,[12]; at 5 µM,67%
same,% of control,[13]; at 1 µM,103%
same,% of control,[13]; at 5 µM,80%
same,% of control,[14]; at 1 µM,98%
same,% of control,[14]; at 5 µM,101%
CNC(=O)Nc1ccc(-c2nc(N3CC4CCC(C3)O4)c3cnn(C4CCC5(CC4)OCCO5)c3n2)cc1,% of inhibition,[15],1%
same,% of control,[16],100%
same,% of control,[17],77%
CC[C@@H]1[C@H](F)C(=O)N[C@@H]1COc1nccc2cc(C(N)=O)c(OC)cc12 [ZIMLOVISERTIB],% of inhibition,[18]; at 0.01 µM,-3.7%
same,% of inhibition,[18]; at 0.04 µM,7.2%
same,% of inhibition,[18]; at 0.2 µM,16.3%
same,% of inhibition,[18]; at 1 µM,42.3%
same,% of inhibition,[18]; at 5 µM,76.6%
CCC(=O)N1CCN(c2ccc(-n3c(=O)ccc4cnc5ccc(-c6cnc7ccccc7c6)cc5c43)cc2C(F)(F)F)CC1,% of control,[19],82%
CN(C)C/C=C/C(=O)Nc1ccc(C(=O)N2CCCC(Nc3ncc(Cl)c(-c4c[nH]c5ccccc45)n3)C2)cc1 (centres undefined),% of control,[20],89%

# From ChEMBL document CHEMBL5465560, “Selectivity Literature for EUbOPEN Chemogenomic Library” (2024)
